Results on three molecules are retold here after patent publication US9744175B2, “Compositions of combinations of non-covalent DNA binding agents and anti-cancer and/or anti-inflammatory agents and their use in disease treatment” (INDUS PHARMACEUTICALS, INC., priority 2012, dated 2017).

One test deals with yeast rad52 mutation. The experiment in a line: Alamar Blue cell survival assay in yeast cells. The class given is cell-based. The protocol:
(§1) The cells are diluted 100-fold in yeast complete medium. 100 μL of diluted cells are seeded in 96 well plates with or without a non-covalent DNA binding compound and incubated for 24 hours at 30° C. The following day, an equal volume of yeast complete medium containing 1% alamar blue is added and incubated at 30° C. for two hours. Fluorescence intensity is measured in a fluorescent reader to calculate the inhibition effect of non-covalent DNA binding agents in mutant and wild type yeast cells.
(§2) Yeast cells that carry mutations in different genes involved in homologous recombination (rad 50, rad51, rad52, and rad57) and nucleotide excision/double strand repair (rad1) are grown to stationary culture overnight.

The test system of another test is yeast rad1 mutation. The experiment in a line: Alamar Blue cell survival assay in yeast cells. Format: cell-based. The protocol: as §1, §2
(In general: Alamar Blue is a resazurin reagent that responds to reducing activity.)

Another test relates to Wild type yeast. The experiment in a line: Alamar Blue cell survival assay in yeast cells. The class given is cell-based. On the procedure: as §1, §2
For the next test, the system named is yeast rad51 mutation. The experiment in a line: Alamar Blue cell survival assay in yeast cells. The class given is cell-based. On the procedure: as §1, §2
The test system of the next test is yeast rad50 mutation. The experiment in a line: Alamar Blue cell survival assay in yeast cells. Format: cell-based. On the procedure:
as §1, §2

Another test has as its system U2OS Wild type. The experiment in a line: siRNA inhibition of MMR, p53 and REV functions, alamar blue growth inhibition. Format: cell-based, human. On the procedure:
(§3) siRNA specific for different genes is purchased from Dharmacon (Thermo. Fisher Scientific Dharmacon Products, Lafayette, Colo. 80026) and the protocol recommended by the supplier is utilized. Confluent cells are trypsinized and 5000 cells are seeded in a well in the presence or absence of siRNA in 100 μL medium. The cells are incubated with siRNA for two days. A non-covalent DNA binding agent of the invention is added in a 10 μL volume and incubated for another 48 hours. After treatment with the agent, the medium is replaced with 1% alamar blue containing medium to measure fluorescence after two hours.
as §3, with “from Dharmacon (Thermo Fisher Scientific” for “from Dharmacon (Thermo. Fisher Scientific”, “two hours. […] The results are presented in FIGS. 14-18 (SEQ ID NO:3-12, respectively) and Table 7.” for “two hours.”

In a further test the test system is HCT116 (mlh−). The experiment in a line: siRNA inhibition of p53 and REV functions, alamar blue growth inhibition. The class given is cell-based, human. On the procedure: as §3
as §3, with “from Dharmacon (Thermo Fisher Scientific” for “from Dharmacon (Thermo. Fisher Scientific”, “two hours. […] The results are presented in FIGS. 14-18 (SEQ ID NO:3-12, respectively) and Table 7.” for “two hours.”

By IC50 is commonly meant the concentration needed to halve the response being measured. For `COc1cc2c(cc1OCCCCOc1cc(-c3ccc(F)cc3)nc(C)n1)N=C[C@@H]1CCCN1C2=O` [NSC 723732], the IC50 in the test with yeast rad52 mutation is 105 µM; with yeast rad1 mutation it was above 250 µM; in the test on Wild type yeast, above 250 µM; in the test on yeast rad51 mutation it was 100 µM; in the test on yeast rad50 mutation, above 250 µM.

As to `COc1cccc2c1C(=O)c1c(O)c3c(c(O)c1C2=O)C[C@@](O)(C(=O)CO)C[C@@H]3OC1CC(N)C(O)C(C)O1` (stereo partly drawn) [Doxorubicin, (8S,10S)-10-(4-amino-5-hydroxy-6-methyl-tetrahydro-2H-pyran-2-yloxy)-6,8,11-trihydroxy-8-(2-hydroxyacetyl)-1-methoxy-7,8,9,10-tetrahydrotetracene-5,12-dione, reference compound], in the test with U2OS Wild type (Homo sapiens, no siRNA knock out, read-out: IC50, Control), the IC50 is 0.7 µM. In addition, in the test on U2OS Wild type (mlh1 siRNA vs control), the “Fold improvement in IC50, mlh1” value is on record as 0.23 fold. Further, the “Fold improvement in IC50, p53” value with U2OS Wild type (p53 siRNA vs control) is listed as 0.7 fold. Moreover, the “Fold improvement in IC50, rev” value in the test on U2OS Wild type (rev siRNA vs control) came to 0.35 fold.

With `CC[C@@]1(O)C(=O)OCc2c1cc1n(c2=O)Cc2cc3ccccc3nc2-1` [Camptothecin, (S)-4-ethyl-4-hydroxy-1H-pyrano[3′,4′:6,7]indolizino[1,2-b]quinoline-3,14-(4H,12H)-dione, reference compound], the IC50 with HCT116 (mlh−) (Homo sapiens, HCT-116, no siRNA knock out, read-out: IC50, Control) worked out at 0.25 µM. The “Fold improvement in IC50, p53” value in the test on HCT116 (mlh−) (p53 siRNA vs control) is 1.3 fold. Also, in the test on HCT116 (mlh−) (rev siRNA vs control), the “Fold improvement in IC50, rev” value is 1.7 fold.
